From patent US20230240297A1, “SELECTIVE HERBICIDES BASED ON SUBSTITUTED ISOXAZOLIN CARBOXAMIDES AND CYPROSULFAMIDE” (Bayer Aktiengesellschaft, priority 2020, published 2023)

Experiments:
Type in all cases: in vivo, maize
ZEAMA Sileno [1] = test: Tank-mix; post-emergence, crop damage with and without safener; conditions: for HER effect + SAF / HER effect: Final assessment; for HER effect: no safener
In short: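 Crops in sandy loam in the greenhouse were sprayed at the 1–3-leaf stage, 2–3 weeks after sowing, with herbicide/safener combinations or the single actives at various dosages in 300 l/ha water. Injury was scored visually 1–3 weeks after treatment as % versus untreated plants (0% none, 100% complete kill).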

ZEAMA Sileno [2] = test: Treatment 1 day before (safener applied one day before herbicide, post-emergence); design: key to Reduction [Difference]: percentage points of visually scored % crop damage vs untreated control
Excerpt: Seeds of crops (spring wheat, TRZAS; spring barley, HORVS; maize, ZEAMA) were placed in sandy loam soil in pots of a diameter of 7-8 cm, covered with soil, and cultivated in a greenhouse under good growth conditions until plants were at the 1-3 leaf stage (BBCH 11-13). For split safener and herbicide treatment, first the safener was applied followed by the herbicide treatment on the following day. The safener and herbicides were formulated as WP and sprayed onto the green parts of the plants as an aqueous suspension at an equivalent water application rate of 300 1/ha, with addition of wetting agent and adjuvants (e.g. Mero, 1.5 1/ha; ammonium sulphate, 2 kg/ha). An equivalent set of plants was treated with the herbicides but without the prior safener treatment.
After application, the test plants were kept in the greenhouse under good growth conditions. 10 and 21 days after treatment (DAT) with the herbicide, % crop damage observed on the treated plants was scored visually in comparison to control plants that had not received any safener or herbicide treatment.

ZEAMA Sileno [3] = test: Seed treatment with safener; pre-emergence herbicide application; conditions: for Reduction [%] / Reduction [Difference]: cyprosulfamide 0.25 g a.i./kg seed; for HER effect + SAF: cyprosulfamide seed treatment 0.25 g a.i./kg seed; for HER effect: no safener
Procedure: For the safener seed treatment, sufficient seeds of the respective crops (spring wheat, TRZAS; spring barley, HORVS; maize, ZEAMA) were weighed into screw top glass bottles approximately twice the volume of the seeds.
The specified safeners, formulated as wettable powder (WP) were weighed out so that the specified rates (g a.i./kg seed) would be obtained, dissolved in water (1 ml water per 10 g of seeds), and added to the seeds to produce a slurry.
The bottles were capped and then placed in an overhead shaker (set at medium speed for ca. 60 minutes) so that the seeds were evenly coated with the slurry. The bottles were uncapped and the seeds were either placed on paper and dried for an interval of 3-4 hours prior to sowing, or directly sown. Seeds were placed in sandy loam soil in pots of a diameter of 7-8 cm, and covered with soil.
Pre-emergence application of the specified herbicides was done subsequently, on two sets of plants: • a) seed treatment with safener, as described above • b) no safener treatment
The herbicides were formulated as WP and was sprayed onto the soil surface as an aqueous suspension at an equivalent water application rate of 300 1/ha.
After application, the test plants were kept in the greenhouse under good growth conditions. At intervals up to 4 weeks after application (=28 days after treatment; DAT), % crop damage observed on the treated plants was scored visually in comparison to control plants that had not received any safener or herbicide treatment.
Values in the table below are mean values of at least 2 replicates.

ZEAMA Sileno [4] = test: Seed treatment with safener; post-emergence herbicide application; design: Reduction [Difference]: scale not given here; conditions: Final assessment; for Reduction [%] / Reduction [Difference]: Cyprosulfamide 0.5 g a.i./kg seed; for Reduction [Difference]: damage without safener - damage with safener; for HER effect + SAF (crop damage with safener): Cyprosulfamide seed treatment 0.5 g a.i./kg seed; for HER effect (crop damage, herbicide without safener): no safener
In short: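 Maize seeds slurry-coated with WP safener (g a.i./kg seed) or left untreated, sown in sandy loam and grown in greenhouse. WP herbicide sprayed post-emergence at BBCH11-13 in 300 l/ha water with wetting agent and adjuvants (e.g. Mero 1.5 l/ha, ammonium sulphate 2 kg/ha); means of at least 2 replicates.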

[5] = HER 8 g a.i./ha, cyprosulfamide 100 g a.i./ha 1 day before
[6] = HER dose 40 g a.i./ha pre-emergence, 14 DAT
[7] = HER dose 40 g a.i./ha pre-emergence, 26 DAT
[8] = HER 8 g a.i./ha, cyprosulfamide 50 g a.i./ha
[9] = HER 32 g a.i./ha, cyprosulfamide 100 g a.i./ha
[10] = HER dose 80 g a.i./ha pre-emergence, 26 DAT

C=CC1(C(=O)NC2COC(C(=O)OC)C2)CC(c2cc(F)cc(F)c2)=NO1 (mixture of isomers) [Example 1.68]
Reduction [%] (ZEAMA Sileno [1]; HER 2 g a.i./ha, cyprosulfamide 50 g a.i./ha): 67%
Reduction [Difference] (ZEAMA Sileno [1]; HER 2 g a.i./ha, cyprosulfamide 50 g a.i./ha, damage without safener - damage with safener): 40
HER effect + SAF (ZEAMA Sileno [1]; HER dose 2 g a.i./ha + cyprosulfamide 50 g a.i./ha tank-mix): 20%
HER effect (ZEAMA Sileno [1]; HER dose 2 g a.i./ha, 0% = no injury, 100% = complete kill): 60%
Reduction [%] (ZEAMA Sileno [2]; [5]): 69%
Reduction [Difference] (ZEAMA Sileno [2]; [5]): 68
HER effect + SAF (ZEAMA Sileno [2]; HER dose 8 g a.i./ha, cyprosulfamide 100 g a.i./ha applied 1 day before, Final assessment): 30%
HER effect (ZEAMA Sileno [2]; HER dose 8 g a.i./ha, no safener, Final assessment): 98%
Reduction [%] (ZEAMA Sileno [3]; HER 40 g a.i./ha, 14 DAT): 41%
Reduction [Difference] (ZEAMA Sileno [3]; HER 40 g a.i./ha, 14 DAT): 38
Reduction [%] (ZEAMA Sileno [3]; HER 40 g a.i./ha, 26 DAT): 58%
Reduction [Difference] (ZEAMA Sileno [3]; HER 40 g a.i./ha, 26 DAT): 55
HER effect + SAF (ZEAMA Sileno [3]; [6]): 55%
HER effect + SAF (ZEAMA Sileno [3]; [7]): 40%
HER effect (ZEAMA Sileno [3]; [6]): 93%
HER effect (ZEAMA Sileno [3]; [7]): 95%
Reduction [%] (ZEAMA Sileno [4]; HER dose 2 g a.i./ha): 83%
Reduction [Difference] (ZEAMA Sileno [4]; HER dose 2 g a.i./ha): 50
HER effect + SAF (crop damage with safener) (ZEAMA Sileno [4]; HER dose 2 g a.i./ha): 10%
HER effect (crop damage, herbicide without safener) (ZEAMA Sileno [4]; HER dose 2 g a.i./ha): 60%
Reduction [%] (ZEAMA Sileno [4]; HER dose 8 g a.i./ha): 74%
Reduction [Difference] (ZEAMA Sileno [4]; HER dose 8 g a.i./ha): 73
HER effect + SAF (crop damage with safener) (ZEAMA Sileno [4]; HER dose 8 g a.i./ha): 25%
HER effect (crop damage, herbicide without safener) (ZEAMA Sileno [4]; HER dose 8 g a.i./ha): 98%
Reduction [%] (ZEAMA Sileno [4]; HER dose 32 g a.i./ha): 69%
Reduction [Difference] (ZEAMA Sileno [4]; HER dose 32 g a.i./ha): 68
HER effect + SAF (crop damage with safener) (ZEAMA Sileno [4]; HER dose 32 g a.i./ha): 30%
HER effect (crop damage, herbicide without safener) (ZEAMA Sileno [4]; HER dose 32 g a.i./ha): 98%

C=CC1(C(=O)NC2C=CC(C(=O)OC)C2)CC(c2cc(F)cc(F)c2)=NO1 (stereo not shown) [Example 1.26]
Reduction [%] (ZEAMA Sileno [1]; [8]): 70%
Reduction [Difference] (ZEAMA Sileno [1]; [8]): 40
Reduction [%] (ZEAMA Sileno [1]; [9]): 71%
Reduction [Difference] (ZEAMA Sileno [1]; [9]): 67
HER effect + SAF (ZEAMA Sileno [1]; HER dose 8 g a.i./ha + cyprosulfamide 50 g a.i./ha tank-mix): 17%
HER effect (ZEAMA Sileno [1]; HER dose 8 g a.i./ha): 57%
HER effect + SAF (ZEAMA Sileno [1]; HER dose 32 g a.i./ha + cyprosulfamide 100 g a.i./ha tank-mix): 27%
HER effect (ZEAMA Sileno [1]; HER dose 32 g a.i./ha): 94%
Reduction [%] (ZEAMA Sileno [3]; HER 40 g a.i./ha, 26 DAT): 70%
Reduction [Difference] (ZEAMA Sileno [3]; HER 40 g a.i./ha, 26 DAT): 35
Reduction [%] (ZEAMA Sileno [3]; HER 80 g a.i./ha, 26 DAT): 57%
Reduction [Difference] (ZEAMA Sileno [3]; HER 80 g a.i./ha, 26 DAT): 40
HER effect + SAF (ZEAMA Sileno [3]; [7]): 15%
HER effect (ZEAMA Sileno [3]; [7]): 50%
HER effect + SAF (ZEAMA Sileno [3]; [10]): 30%
HER effect (ZEAMA Sileno [3]; [10]): 70%
Reduction [%] (ZEAMA Sileno [4]; HER dose 8 g a.i./ha): 74%
Reduction [Difference] (ZEAMA Sileno [4]; HER dose 8 g a.i./ha): 42
HER effect + SAF (crop damage with safener) (ZEAMA Sileno [4]; HER dose 8 g a.i./ha): 15%
HER effect (crop damage, herbicide without safener) (ZEAMA Sileno [4]; HER dose 8 g a.i./ha): 57%
Reduction [%] (ZEAMA Sileno [4]; HER dose 32 g a.i./ha): 71%
Reduction [Difference] (ZEAMA Sileno [4]; HER dose 32 g a.i./ha): 67
HER effect + SAF (crop damage with safener) (ZEAMA Sileno [4]; HER dose 32 g a.i./ha): 27%
HER effect (crop damage, herbicide without safener) (ZEAMA Sileno [4]; HER dose 32 g a.i./ha): 94%
